Reference: US10556907B2 (AbbVie Inc., priority 2015, dated 2020)
Structures can show the parent of a compound that is named as a salt.

Key:
Experiment in all cases: Method 1: intracellular Ca2+ release (FLIPR, Calcium 5) in recombinant CHO-K1 cells
Type in all cases: cell-based
human S1PR3 receptor = target: T1, human S1PR3 receptor (Homo sapiens, UniProt Q99500); settings: (1): determined with method 1; read-out: S1P3 EC50
T1 construct: host or cells: CHO-K1
Procedure, shortened: (§1)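 Agonist EC50 values come from nonlinear fits of FLIPR Ca2+ fluorescence, normalized to the phospho-fingolimod reference curve. Recombinant CHO-K1 (receptor plus Gq/i5, aequorin) dye-loaded 1 h at 37° C in pH 7.4 Hepes/probenecid/BSA buffer. Antagonist mode: 10 min preincubation before phospho-fingolimod at EC80.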

human S1PR5 receptor = target: T2, human S1PR5 receptor (Homo sapiens, UniProt Q9H228); settings: agonist potency, determined with method 1 (symbols A-D); read-out: S1P5 EC50 range
T2 construct: host or cells: CHO-K1
Procedure, shortened: as §1

human S1PR4 receptor = target: T3, human S1PR4 receptor (Homo sapiens, UniProt O95977); settings: (1): determined with method 1; read-out: S1P4 EC50
T3 construct: host or cells: CHO-K1
T3 sequence (O95977 1-384): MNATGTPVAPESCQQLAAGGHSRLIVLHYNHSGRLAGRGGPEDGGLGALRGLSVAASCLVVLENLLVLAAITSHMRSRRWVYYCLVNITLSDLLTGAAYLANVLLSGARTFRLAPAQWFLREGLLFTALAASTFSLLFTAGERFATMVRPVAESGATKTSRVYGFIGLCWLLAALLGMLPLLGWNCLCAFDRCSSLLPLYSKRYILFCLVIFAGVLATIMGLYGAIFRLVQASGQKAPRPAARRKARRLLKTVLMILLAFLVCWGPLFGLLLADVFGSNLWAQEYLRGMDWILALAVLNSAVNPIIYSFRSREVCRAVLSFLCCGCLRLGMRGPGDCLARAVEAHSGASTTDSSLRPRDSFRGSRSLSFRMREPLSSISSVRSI
Procedure, shortened: as §1

human S1PR1 receptor = target: T4, human S1PR1 receptor (Homo sapiens, UniProt P21453); settings: (1): determined with method 1; read-out: S1P1 EC50
T4 construct: host or cells: CHO-K1
Procedure, shortened: as §1

T4 sequence (P21453 whole entry): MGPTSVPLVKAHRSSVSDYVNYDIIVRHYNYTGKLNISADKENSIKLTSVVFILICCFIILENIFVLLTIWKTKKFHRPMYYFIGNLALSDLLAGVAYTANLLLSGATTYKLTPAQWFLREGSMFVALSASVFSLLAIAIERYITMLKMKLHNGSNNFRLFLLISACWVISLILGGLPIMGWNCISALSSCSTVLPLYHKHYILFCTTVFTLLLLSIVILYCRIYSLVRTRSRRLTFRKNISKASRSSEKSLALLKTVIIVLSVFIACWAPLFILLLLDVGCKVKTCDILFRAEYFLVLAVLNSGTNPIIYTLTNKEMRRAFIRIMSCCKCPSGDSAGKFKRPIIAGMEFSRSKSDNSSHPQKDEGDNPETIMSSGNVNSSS
T1 sequence (Q99500 whole entry): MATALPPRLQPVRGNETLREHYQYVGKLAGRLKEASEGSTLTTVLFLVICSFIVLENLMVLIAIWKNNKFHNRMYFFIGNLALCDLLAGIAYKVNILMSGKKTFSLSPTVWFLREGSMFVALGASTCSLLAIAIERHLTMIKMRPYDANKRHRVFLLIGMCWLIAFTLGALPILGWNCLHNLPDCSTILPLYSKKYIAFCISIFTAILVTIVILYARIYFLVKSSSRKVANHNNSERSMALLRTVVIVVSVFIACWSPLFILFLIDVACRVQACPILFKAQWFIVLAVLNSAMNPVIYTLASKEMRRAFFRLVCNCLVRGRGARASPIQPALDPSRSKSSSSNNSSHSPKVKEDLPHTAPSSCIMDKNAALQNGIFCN
T2 sequence (Q9H228 whole entry): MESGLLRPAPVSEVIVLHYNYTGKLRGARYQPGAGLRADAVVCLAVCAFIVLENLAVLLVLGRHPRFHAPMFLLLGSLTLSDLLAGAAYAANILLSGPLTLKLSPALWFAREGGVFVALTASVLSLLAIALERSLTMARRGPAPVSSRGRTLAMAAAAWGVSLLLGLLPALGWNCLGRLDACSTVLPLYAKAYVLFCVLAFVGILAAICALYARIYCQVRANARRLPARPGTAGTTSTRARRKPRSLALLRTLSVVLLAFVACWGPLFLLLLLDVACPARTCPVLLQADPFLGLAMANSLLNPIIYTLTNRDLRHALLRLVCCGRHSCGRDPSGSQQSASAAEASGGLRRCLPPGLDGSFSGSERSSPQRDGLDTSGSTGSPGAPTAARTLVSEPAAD

EC50 (human S1PR3 receptor) [µM]	EC50 (human S1PR5 receptor) [µM]	EC50 (human S1PR4 receptor) [µM]	EC50 (human S1PR1 receptor) [µM]	SMILES
> 1	< 0.01	> 1	> 1	CC(CC(=O)O)CN1CCc2nc(-c3ccc(OCc4ccc(Cl)cc4)cc3)ncc2C1 (racemic) [Compound 23, 4-(2-(4-((4-chlorobenzyl)oxy)phenyl)-7,8-dihydropyrido[4,3-d]pyrimidin-6(5H)-yl)-3-methylbutanoic acid]
> 1	< 0.01	> 1	> 1	CC(CN1CCc2nc(-c3ccc(OCc4cc(Cl)cc(Cl)c4)cc3)ncc2C1)C(=O)O (single isomer, unassigned) [Compound 19, 3-(2-(4-((3,5-dichlorobenzyl)oxy)phenyl)-7,8-dihydropyrido[4,3-d]pyrimidin-6(5H)-yl)-2-methylpropanoic acid]
> 1	0.01 to 0.1	> 1	> 1	CC(CN1CCc2nc(-c3ccc(OCc4cc(Cl)cc(Cl)c4)cc3)ncc2C1)C(=O)O (single isomer, unassigned) [Compound 20, 3-(2-(4-((3,5-dichlorobenzyl)oxy)phenyl)-7,8-dihydropyrido[4,3-d]pyrimidin-6(5H)-yl)-2-methylpropanoic acid]
> 1	0.01 to 0.1	> 1	> 1	C[C@@H](CC(=O)O)CN1CCc2nc(-c3ccc(C(F)(F)Cc4ccc(Cl)cc4)cc3)ncc2C1 (single isomer, unassigned) [Compound 266, 4-(2-(4-(2-(4-chlorophenyl)-1,1-difluoroethyl)phenyl)-7,8-dihydropyrido[4,3-d]pyrimidin-6(5H)-yl)-3-methylbutanoic acid]
> 1	< 0.01	> 1	> 1	CC(CC(=O)O)CN1CCc2nc(-c3ccc(OCc4ccc(Cl)cc4)cc3)ncc2C1 (single isomer, unassigned; (+)) [Compound 212, (+)-4-(2-(4-((4-chlorobenzyl)oxy)phenyl)-7,8-dihydropyrido[4,3-d]pyrimidin-6(5H)-yl)-3-methylbutanoic acid]
> 1	0.1 to 1	> 1	> 1	O=C(O)C1(CN2CCc3nc(-c4ccc(OCc5cccc(Cl)c5)cc4)ncc3C2)CC1 [Compound 1, 1-((2-(4-((3-chlorobenzyl)oxy)phenyl)-7,8-dihydropyrido[4,3-d]pyrimidin-6(5H)-yl)methyl)cyclopropanecarboxylic acid]
	0.1 to 1	> 1	> 1	CC(C(=O)O)N1CCc2nc(-c3ccc(OCc4ccc(Cl)cc4)cc3)ncc2C1 (stereo not drawn) [Compound 312, 2-(2-(4-((4-chlorobenzyl)oxy)phenyl)-7,8-dihydropyrido[4,3-d]pyrimidin-6(5H)-yl)propanoic acid]
	0.1 to 1	> 1	> 1	Cc1cc(C)cc(COc2ccc(-c3ncc4c(n3)CCN(CC(C)CC(=O)O)C4)c(F)c2)c1 (stereo not drawn) [Compound 313, 4-[2-[4-[(3,5-dimethylphenyl)methoxy]-2-fluoro-phenyl]-7,8-dihydro-5H-pyrido[4,3-d]pyrimidin-6-yl]-3-methyl-butanoic acid 2,2,2-trifluoroacetic acid salt]
	0.1 to 1	> 1	> 1	Cc1ccc(C(F)(F)F)cc1COc1ccc(-c2ncc3c(n2)CCN(CC(C)CC(=O)O)C3)cc1C (stereo not drawn) [Compound 314, 3-methyl-4-[2-[3-methyl-4-[[2-methyl-5-(trifluoromethyl)phenyl]methoxy]phenyl]-7,8-dihydro-5H-pyrido[4,3-d]pyrimidin-6-yl]butanoic acid 2,2,2-trifluoroacetic acid salt]
	0.1 to 1	> 1	> 1	C[C@H](CCO)CN1CCc2nc(-c3ccc(OCc4ccc(Cl)cc4)cc3)ncc2C1 [Compound 315, (R)-4-(2-(4-((4-chlorobenzyl)oxy)phenyl)-7,8-dihydropyrido[4,3-d]pyrimidin-6(5H)-yl)-3-methylbutan-1-ol]
	0.1 to 1	< 1	> 1	Cc1cc(-c2ncc3c(n2)CCN(CC(C)CC(=O)O)C3)ccc1OCc1c(F)cccc1F (stereo not drawn) [Compound 316, 4-[2-[4-[(2,6-difluorophenyl)methoxy]-3-methyl-phenyl]-7,8-dihydro-5H-pyrido[4,3-d]pyrimidin-6-yl]-3-methyl-butanoic acid 2,2,2-trifluoroacetic acid salt]
	0.1 to 1	> 1	> 1	CC(C(=O)O)N1CCc2nc(-c3ccc(OCc4cccc(Cl)c4)cc3)ncc2C1 (stereo not drawn) [Compound 317, 2-(2-(4-((3-chlorobenzyl)oxy)phenyl)-7,8-dihydropyrido[4,3-d]pyrimidin-6(5H)-yl)propanoic acid]
	0.1 to 1	> 1	> 1	Cc1cc(-c2ncc3c(n2)CCN(C[C@H](C)CC(=O)O)C3)ccc1OCc1ccc(Cl)cc1 [Compound 318, (R)-4-(2-(4-((4-chlorobenzyl)oxy)-3-methylphenyl)-7,8-dihydropyrido[4,3-d]pyrimidin-6(5H)-yl)-3-methylbutanoic acid]
	0.1 to 1	> 1	> 1	Cc1cc(-c2ncc3c(n2)CCN(C[C@H](C)CC(=O)O)C3)ccc1OCc1ccccc1 [Compound 319, (R)-4-(2-(4-(benzyloxy)-3-methylphenyl)-7,8-dihydropyrido[4,3-d]pyrimidin-6(5H)-yl)-3-methylbutanoic acid]
	1 to 10	> 1	> 1	Cc1cccc(COc2ccc(-c3ncc4c(n3)CCN(CC(C)CC(=O)O)C4)cc2C)c1 (stereo not drawn) [Compound 320, 3-methyl-4-[2-[3-methyl-4-(m-tolylmethoxy)phenyl]-7,8-dihydro-5H-pyrido[4,3-d]pyrimidin-6-yl]butanoic acid 2,2,2-trifluoroacetic acid salt]
	1 to 10	> 1	> 1	CC(C(=O)O)N1CCc2nc(-c3ccc(OCc4ccccc4)cc3)ncc2C1 (stereo not drawn) [Compound 322, 2-(2-(4-(benzyloxy)phenyl)-7,8-dihydropyrido[4,3-d]pyrimidin-6(5H)-yl)propanoic acid]
	1 to 10	> 1	> 1	CC(CC(=O)O)CN1CCc2nc(-c3ccc(C4CC4c4ccc(Cl)cc4)cc3)ncc2C1 (stereo not drawn) [Compound 323, 4-(2-(4-(2-(4-chlorophenyl)cyclopropyl)phenyl)-7,8-dihydropyrido[4,3-d]pyrimidin-6(5H)-yl)-3-methylbutanoic acid]
	1 to 10	> 1	> 1	CC(CC(=O)O)CN1CCc2nc(-c3ccc(C(F)(F)Cc4cccc(Cl)c4)cc3)ncc2C1 (stereo not drawn) [Compound 328, 4-(2-(4-(2-(3-chlorophenyl)-1,1-difluoroethyl)phenyl)-7,8-dihydropyrido[4,3-d]pyrimidin-6(5H)-yl)-3-methylbutanoic acid]
	1 to 10	> 1	> 1	CC(CC(=O)O)CN1Cc2cnc(-c3ccc(OCc4ccc(Cl)cc4)cc3)nc2CC1(C)C (stereo not drawn) [Compound 329, 4-(2-(4-((4-chlorobenzyl)oxy)phenyl)-7,7-dimethyl-7,8-dihydropyrido[4,3-d]pyrimidin-6(5H)-yl)-3-methylbutanoic acid]
	1 to 10	< 1	> 1	Cc1cc(-c2ncc3c(n2)CCN(CC(C)CC(=O)O)C3)ccc1CCc1cccc(Cl)c1 (stereo not drawn) [Compound 331, 4-(2-(4-(3-chlorophenethyl)-3-methylphenyl)-7,8-dihydropyrido[4,3-d]pyrimidin-6(5H)-yl)-3-methylbutanoic acid]
	1 to 10	> 1	> 1	C[C@H](CC(=O)O)C(=O)N1CCc2nc(-c3ccc(OCc4ccc(Cl)cc4)cc3)ncc2C1 [Compound 332, (R)-4-(2-(4-((4-chlorobenzyl)oxy)phenyl)-7,8-dihydropyrido[4,3-d]pyrimidin-6(5H)-yl)-3-methyl-4-oxobutanoic acid]
	1 to 10	> 1	> 1	CC(CC(=O)O)CN1CCc2nc(C3CC(OCc4ccccc4)C3)ncc2C1 (stereo not drawn) [Compound 333, 4-(2-(3-(benzyloxy)cyclobutyl)-7,8-dihydropyrido[4,3-d]pyrimidin-6(5H)-yl)-3-methylbutanoic acid]
	0.1 to 1	> 1	> 1	O=C(O)C1(CCN2CCc3nc(-c4ccc(OCc5ccc(Cl)cc5)cc4)ncc3C2)CC1 [Compound 335, 1-(2-(2-(4-((4-chlorobenzyl)oxy)phenyl)-7,8-dihydropyrido[4,3-d]pyrimidin-6(5H)-yl)ethyl)cyclopropanecarboxylic acid]
	< 0.01	< 1	> 1	CC(CC(=O)O)CN1CCc2nc(-c3ccc(OCC4CCCCC4)cc3)ncc2C1 (stereo not drawn) [Compound 336, 4-(2-(4-(cyclohexylmethoxy)phenyl)-7,8-dihydropyrido[4,3-d]pyrimidin-6(5H)-yl)-3-methylbutanoic acid]
